Measured values: patent US10858423B2, “Composition for the treatment of IGF-1R expressing cancer” (PIERRE FABRE MEDICAMENT, priority 2015, dated 2020)
Where two headings read alike, the source gives them in different places. Where a SMILES comes first, the peptide text is derived from it. [ ]: non-standard residue; d: D form. The star is where a group is joined. Dolaproine = CO[C@@H]([C@@H]1CCCN1)[C@@H](C)C(=O)O; Dil = CC[C@H](C)[C@H](NC)[C@@H](CC(=O)O)OC; X2 = CNc1ccc(CCN(C)[C@H](C(=O)*)C(C)C)cc1; X3 = CC(C)C(C(=O)*)N(C)CCc1ccc(C(=O)O)cc1; X1 = CC(C)[C@@H](C(=O)*)N(C)Cc1cccc(N)c1

Assays:
A549 cells = test: ATPlite antiproliferative assay, A549; assay type: cell-based; details: Homo sapiens
Description: (§1) A549 (Non Small Cell Lung Cancer—ATCC CCL-185) and MDA-MB-231 (breast adenocarcinoma—ATCC HTB-26) cells were cultured in Minimum Essential Medium Eagle (MEM) with 5% fetal calf serum (FCS) and Dulbecco's modified Eagle Medium (DMEM) with 10% FCS respectively. MCF7 (breast ductal carcinoma—ATCC HTB-22) and SN-12C (kidney carcinoma—ATCC) cells were maintained in RPMI1640 medium (without phenol red for MCF7 cells) containing 10% FCS. All the media were supplemented with fungizone (1.25 μg/mL) and penicillin-streptomycin (100 U/100 μg/mL). Cells were cultured under standard conditions in an incubator at 37° C., 5% CO2 and 95% atmospheric humidity.
(§2) Selected drugs were investigated for their antiproliferative activity using an ATPlite proliferation assay (Perkin Elmer, Villebon sur Yvette, France) on a comprehensive panel of 4 cell lines. Cells were seeded in 96 well plates (10^3 cells/well for A549, 2.10^3 for MCF7, MDA-MB-231 and SN12C) at day 0 at a concentration to ensure cells remained in logarithmic cell growth phase throughout the 72 h drug treatment period. After a 24 h incubation period, all the cells were treated with serial dilutions of the tested compounds (11 μL of a 10× solution in 1% DMSO—6 wells/condition). To avoid adherence of the compounds onto the tips, tips were changed between two consecutive dilutions. Cells were then placed in 37° C., 5% CO2 incubator. On day 4, cell viability was evaluated by dosing the ATP released by viable cells. The number of viable cells was analyzed in comparison with the number of solvent treated cells. The EC50 values were determined with curve fitting analysis (non linear regression model with a sigmoidal dose response, variable hill slope coefficient), performed with the algorithm provided by the GraphPad Software (GraphPad Software Inc., CA, USA).

MDA-MB-231 cells = test: ATPlite antiproliferative assay, MDA-MB-231; assay type: cell-based; details: Homo sapiens
Description: as §1, §2

MCF7 cells = test: ATPlite antiproliferative assay, MCF7; assay type: cell-based; details: Homo sapiens
Description: as §1
(§3) Selected drugs were investigated for their antiproliferative activity using an ATPlite proliferation assay (Perkin Elmer, Villebon sur Yvette, France) on a comprehensive panel of 4 cell lines. […] On day 4, cell viability was evaluated by dosing the ATP released by viable cells. The number of viable cells was analyzed in comparison with the number of solvent treated cells. The EC50 values were determined with curve fitting analysis (non linear regression model with a sigmoidal dose response, variable hill slope coefficient), performed with the algorithm provided by the GraphPad Software (GraphPad Software Inc., CA, USA).

SN-12C cells = test: ATPlite antiproliferative assay, SN12C; assay type: cell-based; details: Homo sapiens
Description: as §1, §3

lysosome functions = test: inhibition of antibody degradation by lysosome inhibitor; assay type: cell-based; details: cells with 10 μg/ml Ab, 2 h at 37° C.
Description: In order to confirm that second IGF-1R antibodies Ab reached the lysosome were they are degraded, cells were treated or not with bafilomycine A1, a potent inhibitor of lysosome functions. Cells were then incubated with 10 μg/ml of Ab to be tested at 4° C., washed and incubated for 2 h at 37° C. The internalized Ab was detected after cell permeabilisation using a secondary anti-mouse IgG-Alexa 488 Ab.

IGF-1R = IGF-1R (Homo sapiens, UniProt P08069); details: background statement; cited from earlier work
[1] = A549, comparative examples table, read-out: EC50 (M) A549
[2] = MDA-MB-231, comparative examples table, read-out: EC50 (M) MDA-MB-231

Compound	EC50 (A549 cells; [1]) [M]	EC50 (MDA-MB-231 cells; [2]) [M]	EC50 (MDA-MB-231 cells; MDA-MB-231, read-out: EC50) [M]	also measured
CC[C@H](C)[C@@H]([C@@H](CC(=O)N1CCC[C@H]1[C@H](OC)[C@@H](C)C(=O)N[C@@H](Cc1ccccc1)C(=O)OC)OC)N(C)C(=O)[C@@H](NC(=O)[C@H](C(C)C)N(C)CCc1ccc(NC)cc1)C(C)C [Compound 12, methyl (S)-2-((2R,3R)-3-((S)-1-((3R,4S,5S)-4-((S)—N,3-dimethyl-2-((S)-3-methyl-2-(methyl(4-(methylamino)phenethyl)amino)butanamido)butanamido)-3-methoxy-5-methylheptanoyl)pyrrolidin-2-yl)-3-methoxy-2-methylpropanamido)-3-phenylpropanoate, trifluoroacetic Acid] (X2-V[Dil][Dolaproine]F-OMe)	1.48e-10	5.8e-10	5.8e-10	
CC[C@H](C)[C@@H]([C@@H](CC(=O)N1CCC[C@H]1[C@H](OC)[C@@H](C)C(=O)N[C@@H](Cc1ccccc1)C(=O)O)OC)N(C)C(=O)[C@@H](NC(=O)[C@H](C(C)C)N(C)CCc1ccc(NC)cc1)C(C)C [Compound 13, (S)-2-((2R,3R)-3-((S)-1-((3R,4S,5S)-4-((S)—N,3-dimethyl-2-((S)-3-methyl-2-(methyl(4-(methylamino)phenethyl)amino)butanamido)butanamido)-3-methoxy-5-methylheptanoyl)pyrrolidin-2-yl)-3-methoxy-2-methylpropanamido)-3-phenylpropanoic acid, trifluoroacetic Acid] (X2-V[Dil][Dolaproine]F-OH)	2.71e-08	7.95e-08	7.95e-08	
CC[C@H](C)[C@@H]([C@@H](CC(=O)N1CCC[C@H]1[C@H](OC)[C@@H](C)C(=O)N[C@@H](Cc1ccccc1)C(=O)OC)OC)N(C)C(=O)[C@@H](NC(=O)[C@H](C(C)C)N(C)Cc1cccc(N)c1)C(C)C [Compound 15, methyl (S)-2-((2R,3R)-3-((S)-1-((3R,4S,5S)-4-((S)-2-((S)-2-((3-aminobenzyl) (methyl)amino)-3-methylbutanamido)-N,3-dimethylbutanamido)-3-methoxy-5-methylheptanoyl)pyrrolidin-2-yl)-3-methoxy-2-methylpropanamido)-3-phenylpropanoate, trifluoroacetic Acid] (X1-V[Dil][Dolaproine]F-OMe)	1.45e-10	1.7e-10	1.7e-10	EC50 (A549 cells; A549, 72 h drug treatment, read-out: EC50 (M) A549): 1.45e-10 M; EC50 (A549 cells; A549, text bound, read-out: EC50): < 1e-07 M; EC50 (MDA-MB-231 cells; MDA-MB-231, 72 h, 72 h drug treatment, read-out: EC50 (M) MDA-MB-231): 1.7e-10 M; EC50 (MDA-MB-231 cells; MDA-MB-231, MDA-MB-231, text bound, read-out: EC50): < 1e-07 M; EC50 (MCF7 cells; 72 h drug treatment, read-out: EC50 (M) MCF-7): 7.15e-10 M; EC50 (MCF7 cells; MCF-7, text bound, read-out: EC50): < 1e-07 M; EC50 (SN-12C cells; 72 h drug treatment, read-out: EC50 (M) SN12C): 2.18e-10 M; EC50 (SN-12C cells; text bound, read-out: EC50): < 1e-07 M
CO/C1=C\C(C)=C\[C@@H](C)[C@@H](O)[C@@H](C)C/C(C)=C/C=C/[C@H](OC)[C@@H]([C@@H](C)[C@@H](O)[C@H](C)[C@@]2(O)C[C@@H](O)[C@H](C)[C@@H](C(C)C)O2)OC1=O [bafilomycine A1]				effect on degradation of intracellular Ab (lysosome functions): prevented the degradation of intracellular Ab
CC[C@H](C)[C@@H]([C@@H](CC(=O)N1CCC[C@H]1[C@H](OC)[C@@H](C)C(=O)N[C@@H](Cc1ccccc1)C(=O)OC)OC)N(C)C(=O)[C@@H](NC(=O)C(C(C)C)N(C)CCc1ccc(C(=O)O)cc1)C(C)C (some centres unmarked) [compound 1, reference compound] (X3-V[Dil][Dolaproine]F-OMe)	3.76e-09	2.29e-09		
CC[C@H](C)[C@@H]([C@@H](CC(=O)N1CCC[C@H]1[C@H](OC)[C@@H](C)C(=O)N[C@@H](Cc1ccccc1)C(=O)O)OC)N(C)C(=O)[C@@H](NC(=O)C(C(C)C)N(C)CCc1ccc(C(=O)O)cc1)C(C)C (some centres unmarked) [compound 2, reference compound] (X3-V[Dil][Dolaproine]F-OH)	4.03e-07	9.75e-07		
IGF2: insulin-like growth factor 2, ligand of IGF-1R				Kd (IGF-1R): ~1 nM
